This passage reports GI50 and TGI results from PubChem BioAssay (NCI).

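48-hour exposure; five concentrations; linearly interpolated endpoints. GI50 is the concentration that inhibits growth by half. TGI: concentration producing complete growth inhibition.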

Among the test systems are RXF 393 renal; SNB-75 CNS; HCC-2998 colon; OVCAR-3 ovarian; BT-549 breast; NCI/ADR-RES ovarian; OVCAR-5 ovarian; UO-31 renal.
What all share (test): NCI tumour cell line growth inhibition, 48 h

With `CC(=N\O)/C(C)=N/O.CC(=N\O)/C(C)=N/O.CC(=N\O)/C(C)=N/O.CC(=N\O)/C(C)=N/O.[Cu].[Cu]`, the GI50 in the test with RXF 393 renal is 21.5 µM; in the test on SNB-75 CNS, 17.1 µM; with HCC-2998 colon, 16.8 µM; in the test with OVCAR-3 ovarian, 22.6 µM; in the test on BT-549 breast, 19 µM; with NCI/ADR-RES ovarian it was 23.9 µM. For the same molecule, the GI50 in the test with OVCAR-5 ovarian is 19.3 µM; with UO-31 renal it was 13.4 µM. Moreover, the TGI in the test on RXF 393 renal came out at 39.3 µM; with SNB-75 CNS, 31.8 µM; in the test with HCC-2998 colon, 30.5 µM; in the test on OVCAR-3 ovarian it was 43.7 µM; with BT-549 breast, 33.4 µM; in the test with NCI/ADR-RES ovarian, 59.2 µM. The figures for the TGI in the test on OVCAR-5 ovarian and in the test with UO-31 renal were 34 µM and 27.3 µM, respectively.
Turning to `C[C@]12CC/C(=N\N)C[C@@H]1CC[C@@H]1[C@@H]2CC[C@]2(C)/C(=N/N)CC[C@@H]12`, the GI50 in the test with RXF 393 renal, in the test on SNB-75 CNS, with HCC-2998 colon, in the test on OVCAR-3 ovarian, in the test with BT-549 breast and in the test with NCI/ADR-RES ovarian was over 100 µM in each case. Moreover, the results for the GI50 with OVCAR-5 ovarian and in the test with UO-31 renal were over 100 µM and 51 µM, respectively. Also, the TGI with RXF 393 renal, in the test with SNB-75 CNS, in the test with HCC-2998 colon, in the test with OVCAR-3 ovarian, with BT-549 breast and in the test with NCI/ADR-RES ovarian was over 100 µM throughout. Also, the TGI in the test on OVCAR-5 ovarian and with UO-31 renal was over 100 µM in each case.
With `COc1cc(C(=O)/C=C/c2c(-c3ccc(F)cc3)nc3sc(C)cn23)cc(OC)c1OC`, the GI50 in the test on RXF 393 renal is 5.75 µM; with SNB-75 CNS it was 50.1 µM; in the test on HCC-2998 colon, 9.93 µM; in the test on OVCAR-3 ovarian it was 3.66 µM; with BT-549 breast it was 3.75 µM; with NCI/ADR-RES ovarian, 2.63 µM. Further, the GI50 with OVCAR-5 ovarian is over 100 µM; in the test with UO-31 renal, 2.95 µM. The TGI with RXF 393 renal was over 100 µM; in the test with SNB-75 CNS, over 100 µM; in the test with HCC-2998 colon, over 100 µM; in the test on OVCAR-3 ovarian, over 100 µM; in the test on BT-549 breast it was over 100 µM; in the test with NCI/ADR-RES ovarian it was 15.8 µM. For the same molecule, the TGI in the test with OVCAR-5 ovarian and in the test with UO-31 renal was over 100 µM each time.
Take `COc1ccc(-c2nsc3c2NC(=O)CC3c2ccc3c(c2)OCO3)cc1` (stereo not given): the GI50 in the test with RXF 393 renal was 1.38 µM; in the test with SNB-75 CNS, 1.49 µM; in the test with HCC-2998 colon, 1.6 µM; with OVCAR-3 ovarian it was 0.874 µM; in the test with BT-549 breast, 2.54 µM; with NCI/ADR-RES ovarian, 0.524 µM. In addition, the GI50 with OVCAR-5 ovarian was 3.19 µM; with UO-31 renal it was 5.09 µM. Also, the TGI in the test with RXF 393 renal was 7.88 µM; in the test on SNB-75 CNS it was 9.97 µM; in the test on HCC-2998 colon, 6.37 µM; in the test on OVCAR-3 ovarian, 10.4 µM; with BT-549 breast, over 100 µM; in the test on NCI/ADR-RES ovarian, 6.12 µM. For the same molecule, the TGI with OVCAR-5 ovarian and in the test on UO-31 renal was over 100 µM throughout.
For `O=S1(=O)N(Cc2ccccc2)[C@@H](Cc2ccccc2)C2O[C@H]2[C@H](Cc2ccccc2)N1Cc1ccccc1` (stereo not given in full), the GI50 in the test with RXF 393 renal is over 7.5 µM; in the test with SNB-75 CNS, over 7.5 µM; in the test with HCC-2998 colon, over 7.5 µM; with OVCAR-3 ovarian, 4.03 µM; in the test with BT-549 breast, 4.09 µM; in the test on NCI/ADR-RES ovarian it was 5.23 µM. Moreover, the GI50 in the test with OVCAR-5 ovarian and in the test on UO-31 renal was over 7.5 µM in each case. The TGI in the test on RXF 393 renal, with SNB-75 CNS, in the test with HCC-2998 colon, with OVCAR-3 ovarian, with BT-549 breast and with NCI/ADR-RES ovarian was over 7.5 µM throughout. For the same molecule, the TGI with OVCAR-5 ovarian and with UO-31 renal was over 7.5 µM in each case.
Regarding `Cc1[nH]c(C(=O)Nc2ccc(C(=O)N3CCNCC3)cc2OC(C)C)c(Cl)c1Cl`, the GI50 with RXF 393 renal was 1.59 µM; in the test with SNB-75 CNS, 3.31 µM; in the test with HCC-2998 colon, 1.78 µM; in the test with OVCAR-3 ovarian it was 2.19 µM; with BT-549 breast, 14.3 µM; in the test with NCI/ADR-RES ovarian it was 2.25 µM. Moreover, the GI50 was 1.79 µM in the test with OVCAR-5 ovarian and 1.44 µM in the test with UO-31 renal. Further, the TGI with RXF 393 renal was determined as 3.25 µM; in the test with SNB-75 CNS, 14.1 µM; in the test on HCC-2998 colon it was 3.38 µM; in the test with OVCAR-3 ovarian it was 4.62 µM; in the test with BT-549 breast, 29 µM; in the test with NCI/ADR-RES ovarian it was 5.58 µM. The TGI came out at 4.04 µM in the test with OVCAR-5 ovarian and 2.85 µM in the test with UO-31 renal.
As to `CC1=C(SCc2ccccc2)C(=O)c2ccccc2C1=O`, the TGI in the test with RXF 393 renal was found to be 30.4 µM; with SNB-75 CNS, 26.5 µM; with HCC-2998 colon, 57 µM; in the test on OVCAR-3 ovarian, 23.1 µM; in the test with BT-549 breast it was 32.1 µM; in the test on NCI/ADR-RES ovarian it was 61.1 µM. The molecule also gave a TGI with OVCAR-5 ovarian of 71.7 µM.
With `Cc1nc2cncc(C#Cc3cncc(C(=O)Nc4ccc(CN5CCN(C)CC5)c(C(F)(F)F)c4)c3)c2nc1C`, the GI50 in the test with RXF 393 renal is 0.268 µM; in the test on SNB-75 CNS, 0.854 µM; with HCC-2998 colon it was 1.33 µM; in the test with OVCAR-3 ovarian it was 0.899 µM; in the test on BT-549 breast it was 1.72 µM; in the test with NCI/ADR-RES ovarian, 1.83 µM. Further, the GI50 in the test with OVCAR-5 ovarian is 0.608 µM; with UO-31 renal, 0.256 µM. In addition, the TGI worked out at 1.76 µM with RXF 393 renal; 3.34 µM in the test on SNB-75 CNS; 20.5 µM in the test with HCC-2998 colon; 6.54 µM in the test with OVCAR-3 ovarian; 7.8 µM in the test on BT-549 breast; 8.65 µM in the test with NCI/ADR-RES ovarian. Also, the figures for the TGI in the test on OVCAR-5 ovarian and in the test with UO-31 renal were 17.5 µM and 1.06 µM, respectively.
As for `Cn1c(=O)c(Oc2cccc(F)c2)cc2cnc(NC3CCOCC3)nc21`, the GI50 with RXF 393 renal is over 25 µM; in the test on SNB-75 CNS it was over 6.38 µM; in the test on HCC-2998 colon, over 25 µM; in the test on OVCAR-3 ovarian, over 25 µM; with BT-549 breast, over 25 µM; in the test on NCI/ADR-RES ovarian, over 25 µM. Besides, the values for the GI50 in the test with OVCAR-5 ovarian and with UO-31 renal were over 25 µM and over 8.3 µM, respectively. The TGI with RXF 393 renal, in the test on SNB-75 CNS, with HCC-2998 colon, in the test on OVCAR-3 ovarian, in the test with BT-549 breast and in the test with NCI/ADR-RES ovarian was over 25 µM in each case. The figures for the TGI with OVCAR-5 ovarian and in the test on UO-31 renal were over 25 µM and over 13 µM, respectively.
